Assay results taken from ChEMBL document CHEMBL4382234, “Fluoroquinolone-isatin hybrids and their biological activities” (Eur J Med Chem, 2019).
Values after ≈ are worked out from the molar mass of the structure shown.

What was measured:
Type in all cases: functional
[1] = system: Mycobacterium tuberculosis; assay: Antimycobacterial activity against Mycobacterium tuberculosis H37Rv after 3 to 7 days by rapid direct susceptibility test
[2] = system: Mycobacterium tuberculosis; assay: Antitubercular activity against Mycobacterium tuberculosis H37Rv by microplate alamar blue assay
[3] = system: Mycolicibacterium smegmatis; assay: Antimycobacterial activity against Mycobacterium smegmatis CMCC 93202 after 72 hrs by double dilution method; settings: CMCC 93202, 72 h
[4] = system: Mycobacterium tuberculosis; assay: Antimycobacterial activity against Mycobacterium tuberculosis H37Rv ATCC 27294 by rapid direct susceptibility test

| SMILES | MIC [1] [µg/mL] | MIC [2] [µg/mL] | MIC [3] [µg/mL] | MIC [4] [µg/mL] |
| --- | --- | --- | --- | --- |
| COc1c(N2C[C@@H]3CCCN(Cc4cn(CCN5C(=O)C(=O)c6cc(Br)ccc65)nn4)[C@@H]3C2)c(F)cc2c(=O)c(C(=O)O)cn(C3CC3)c12 | 0.1 to 0.78 (≈ 0.136 to 1.06 µM) |  |  |  |
| COc1cc(Cc2cnc(/N=C3\C(=O)N(CN4CCN(c5c(F)cc6c(=O)c(C(=O)O)cn(C7CC7)c6c5OC)CC4C)c4ccc(Cl)cc43)nc2N)cc(OC)c1OC (stereo not drawn) |  | 0.78 to 3.13 (≈ 0.927 to 3.72 µM) |  |  |
| COc1cc(Cc2cnc(/N=C3\C(=O)N(CN4CCN(c5c(F)cc6c(=O)c(C(=O)O)cn(C7CC7)c6c5OC)CC4C)c4ccc(C)cc43)nc2N)cc(OC)c1OC (stereo not drawn) |  | 0.78 to 3.13 (≈ 0.95 to 3.81 µM) |  |  |
| COc1c(N2C[C@@H]3CCCN(CN4C(=O)/C(=N\O)c5ccccc54)[C@@H]3C2)c(F)cc2c(=O)c(C(=O)O)cn(C3CC3)c12 |  |  | 0.39 to 16 (≈ 0.678 to 27.8 µM) | 0.39 to 16 (≈ 0.678 to 27.8 µM) |
| NC(=O)N/N=C1/C(=O)N(CCCN2CCN(c3cc4c(cc3F)c(=O)c(C(=O)O)cn4C3CC3)CC2)c2ccccc21 | 0.1 to 64 (≈ 0.174 to 111 µM) |  |  |  |
| COc1c(N2C[C@@H]3CCCN(CN4C(=O)/C(=N\NC(N)=S)c5cc(F)ccc54)[C@@H]3C2)c(F)cc2c(=O)c(C(=O)O)cn(C3CC3)c12 |  |  | 0.39 to 16 (≈ 0.598 to 24.6 µM) | 0.39 to 16 (≈ 0.598 to 24.6 µM) |
| CCc1cc(C(N)=S)ccn1 [ETHIONAMIDE] |  | 2.5 (≈ 15 µM) |  |  |
| NC[C@H]1O[C@H](O[C@H]2[C@H](O)[C@@H](O[C@H]3O[C@H](CO)[C@@H](O)[C@H](N)[C@H]3O)[C@H](N)C[C@@H]2N)[C@H](O)[C@@H](O)[C@@H]1O [KANAMYCIN] |  | 5 (≈ 10.3 µM) |  |  |
| COc1c(N2C[C@@H]3CCCN(CN4C(=O)/C(=N\O)c5cc(F)ccc54)[C@@H]3C2)c(F)cc2c(=O)c(C(=O)O)cn(C3CC3)c12 |  |  | 0.39 to 16 (≈ 0.657 to 27 µM) | 0.39 to 16 (≈ 0.657 to 27 µM) |
| CCn1cc(C(=O)O)c(=O)c2cc(F)c(N3CCN(CN4C(=O)/C(=N\c5ncc(Cc6cc(OC)c(OC)c(OC)c6)c(N)n5)c5cc(F)ccc54)C(C)C3)c(F)c21 (stereo not drawn) |  | 0.78 to 3.13 (≈ 0.974 to 3.91 µM) |  |  |
| COc1cc(Cc2cnc(/N=C3\C(=O)N(CN4CCN(c5c(F)cc6c(=O)c(C(=O)O)cn(C7CC7)c6c5OC)CC4C)c4ccc(F)cc43)nc2N)cc(OC)c1OC (stereo not drawn) |  | 0.78 to 3.13 (≈ 0.946 to 3.79 µM) |  |  |
| CCO/N=C1\C(=O)N(CCN2CCC[C@H]3CN(c4c(F)cc5c(=O)c(C(=O)O)cn(C6CC6)c5c4OC)C[C@H]32)c2ccc(F)cc21 |  |  | 0.39 to 16 (≈ 0.614 to 25.2 µM) | 0.39 to 16 (≈ 0.614 to 25.2 µM) |
| CCO/N=C1/C(=O)N(CCn2cc(CN3CCC[C@H]4CN(c5c(F)cc6c(=O)c(C(=O)O)cn(C7CC7)c6c5OC)C[C@H]43)nn2)c2ccc(Br)cc21 | 0.1 to 0.78 (≈ 0.129 to 1 µM) |  |  |  |
| CCO/N=C1/C(=O)N(CCn2cc(CN3CCC[C@H]4CN(c5c(F)cc6c(=O)c(C(=O)O)cn(C7CC7)c6c5OC)C[C@H]43)nn2)c2ccccc21 | 0.1 to 0.78 (≈ 0.143 to 1.12 µM) |  |  |  |
| CCO/N=C1\C(=O)N(CN2CCC[C@H]3CN(c4c(F)cc5c(=O)c(C(=O)O)cn(C6CC6)c5c4OC)C[C@H]32)c2ccc(F)cc21 |  |  | 0.39 to 16 (≈ 0.627 to 25.7 µM) | 0.39 to 16 (≈ 0.627 to 25.7 µM) |
| COc1c(N2C[C@@H]3CCCN(CCN4C(=O)C(=O)c5cc(F)ccc54)[C@@H]3C2)c(F)cc2c(=O)c(C(=O)O)cn(C3CC3)c12 |  |  | 0.39 to 16 (≈ 0.658 to 27 µM) | 0.39 to 16 (≈ 0.658 to 27 µM) |
| COc1c(N2C[C@@H]3CCCN(CN4C(=O)C(=O)c5cc(F)ccc54)[C@@H]3C2)c(F)cc2c(=O)c(C(=O)O)cn(C3CC3)c12 |  |  | 0.39 to 16 (≈ 0.674 to 27.7 µM) | 0.39 to 16 (≈ 0.674 to 27.7 µM) |
| COc1c(N2CCNC(C)C2)c(F)cc2c(=O)c(C(=O)O)cn(C3CC3)c12 (stereo not drawn) [GATIFLOXACIN] | 0.5 (≈ 1.33 µM) |  |  |  |
| CO/N=C1\C(=O)N(CN2CCC[C@H]3CN(c4c(F)cc5c(=O)c(C(=O)O)cn(C6CC6)c5c4OC)C[C@H]32)c2ccccc21 |  |  | 0.39 to 16 (≈ 0.661 to 27.1 µM) | 0.39 to 16 (≈ 0.661 to 27.1 µM) |
| Cc1ccc2c(c1)/C(=N\NC(N)=S)C(=O)N2CCCN1CCN(c2cc3c(cc2F)c(=O)c(C(=O)O)cn3C2CC2)CC1 | 0.1 to 64 (≈ 0.165 to 106 µM) |  |  |  |
| NNC(=O)c1ccncc1 [ISONIAZID] | > 128 | 0.05 (≈ 0.365 µM) |  |  |
| CCn1cc(C(=O)O)c(=O)c2cc(F)c(N3CCN(CN4C(=O)/C(=N\c5ncc(Cc6cc(OC)c(OC)c(OC)c6)c(N)n5)c5cc(F)ccc54)CC3)cc21 |  | 0.78 to 3.13 (≈ 1.01 to 4.07 µM) |  |  |
| CO/N=C1\C(=O)N(CN2CCC[C@H]3CN(c4c(F)cc5c(=O)c(C(=O)O)cn(C6CC6)c5c4OC)C[C@H]32)c2ccc(F)cc21 |  |  | 0.39 to 16 (≈ 0.642 to 26.3 µM) | 0.39 to 16 (≈ 0.642 to 26.3 µM) |
| Cc1ccc2c(c1)/C(=N\NC(N)=O)C(=O)N2CCCN1CCN(c2cc3c(cc2F)c(=O)c(C(=O)O)cn3C2CC2)CC1 | 0.1 to 64 (≈ 0.17 to 109 µM) |  |  |  |
| COc1c(N2C[C@@H]3CCCN(CCN4C(=O)/C(=N\NC(N)=S)c5cc(F)ccc54)[C@@H]3C2)c(F)cc2c(=O)c(C(=O)O)cn(C3CC3)c12 |  |  | 0.39 to 16 (≈ 0.586 to 24 µM) | 0.39 to 16 (≈ 0.586 to 24 µM) |
| CC[C@@H](CO)NCCN[C@@H](CC)CO [ETHAMBUTOL] |  | 1.88 (≈ 9.2 µM) |  |  |
| Cc1ccc2c(c1)/C(=N\O)C(=O)N2CCCN1CCN(c2cc3c(cc2F)c(=O)c(C(=O)O)cn3C2CC2)CC1 | 0.1 to 64 (≈ 0.183 to 117 µM) |  |  |  |
